Reference: paper PMC3525792 (Bioorganic & medicinal chemistry letters, 2012)

Experiments:
SERT = settings: read-out: SERT binding Ki; cited from earlier work
fluorescent properties = format: physicochemical
[1] = substrate: NCCc1ccc(O)c(O)c1; assay: cells, lysate or membranes; settings: other: substrate KM, determined in parallel; mean [SE interval]

Molecule: CN(C)CCCC1(c2ccc(F)cc2)OCc2cc(-c3cccc(N)c3)ccc21 (stereo not shown) [compound 3]
- Ki (SERT): 10.4 nM

Molecule: CCN(CC)c1ccc2c(-c3ccc(S(=O)(=O)NCCCCCC(=O)NCCC(=O)Nc4cccc(-c5ccc6c(c5)COC6(CCCN(C)C)c5ccc(F)cc5)c4)cc3S(=O)(=O)[O-])c3ccc(=[N+](CC)CC)cc-3oc2c1 (stereo not shown) [compound 8]
- maximal emission wavelength (fluorescent properties): 592 nm
- maximal excitation wavelength (fluorescent properties): 570 nm

B1: hDAT (Homo sapiens) (protein)
chain: MSKSKCSVGLMSSVVAPAKEPNAVGPKEVELILVKEQNGVQLTSSTLTNPRQSPVEAQDRETWGKKIDFLLSVIGFAVDLANVWRFPYLCYKNGGGAFLVPYLLFMVIAGMPLFYMELALGQFNREGAAGVWKICPILKGVGFTVILISLYVGFFYNVIIAWALHYLFSSFTTELPWIHCNNSWNSPNCSDAHPGDSSGDSSGLNDTFGTTPAAEYFERGVLHLHQSHGIDDLGPPRWQLTACLVLVIVLLYFSLWKGVKTSGKVVWITATMPYVVLTALLLRGVTLPGAIDGIRAYLSVDFYRLCEASVWIDAATQVCFSLGVGFGVLIAFSSYNKFTNNCYRDAIVTTSINSLTSFSSGFVVFSFLGYMAQKHSVPIGDVAKDGPGLIFIIYPEAIATLPLSSAWAVVFFIMLLTLGIDSAMGGMESVITGLIDEFQLLHRHRELFTLFIVLATFLLSLFCVTNGGIYVFTLLDHFAAGTSILFGVLIEAIGVAWFYGVGQFSDDIQQMTGQRPSLYWRLCWKLVSPCFLLFVVVVSIVTFRPPHYGAYIFPDWANALGWVIATSSMAMVPIYAAYKFCSLPGSFREKLAYAIAPEKDRELVDRGEVRQFTLRHWLKV
- Km [1]: 1010[909;1120] nM
